≈ marks a conversion by molar mass, not a printed value. Bounds are passed on as bounds.

What all share (assay type): functional
In assay [1] the test system is Staphylococcus aureus. The experiment in a line: Antimicrobial activity against methicillin-resistant Staphylococcus aureus 309-3 clinical isolate after 16 hrs by broth microdilution method. The note with it: 309-3, 16 h. (In general: Broth dilution looks for growth in wells or tubes with falling amounts of substance.)
For assay [2], the system named is Staphylococcus aureus. The experiment in a line: Antimicrobial activity against methicillin-resistant Staphylococcus aureus 8-24 clinical isolate after 16 hrs by broth microdilution method. Conditions: 8-24, 16 h.
The test system of assay [3] is Staphylococcus aureus. The experiment in a line: Antimicrobial activity against methicillin-resistant Staphylococcus aureus 309-1 clinical isolate after 16 hrs by broth microdilution method. Conditions: 309-1, 16 h.
Assay [4] deals with Staphylococcus aureus. The experiment in a line: Antimicrobial activity against methicillin-resistant Staphylococcus aureus 309-6 clinical isolate after 16 hrs by broth microdilution method. The note with it: 309-6, 16 h.
For assay [5], the system named is Enterococcus faecalis. Kind of assay: Antimicrobial activity against Enterococcus faecalis VRE-309 after 16 hrs by broth microdilution method. The note with it: VRE-309, 16 h.
The test system of assay [6] is Staphylococcus aureus. Kind of assay: Antimicrobial activity against methicillin-resistant Staphylococcus aureus 6281 clinical isolate after 16 hrs by broth microdilution method. Conditions: Staphylococcus aureus, 6281, 16 h.
Assay [7] deals with Pseudomonas aeruginosa. The experiment in a line: Antimicrobial activity against Pseudomonas aeruginosa PAO1 after 16 hrs by broth microdilution method. Conditions: PAO1, 16 h.
The test system of assay [8] is Staphylococcus aureus. Kind of assay: Antimicrobial activity against methicillin-resistant Staphylococcus aureus 6-42 clinical isolate after 16 hrs by broth microdilution method. The note with it: 6-42, 16 h.
Assay [9] concerns Staphylococcus aureus. The experiment in a line: Antimicrobial activity against methicillin-resistant Staphylococcus aureus 8-21 clinical isolate after 16 hrs by broth microdilution method. The note with it: 8-21, 16 h.
Assay [10] concerns Bacillus spizizenii. Kind of assay: Antimicrobial activity against Bacillus subtilis ATCC 6633 after 16 hrs by broth microdilution method. The note with it: ATCC 6633, 16 h.
Assay [11] deals with Klebsiella pneumoniae. Kind of assay: Antimicrobial activity against Klebsiella pneumoniae KP-249 clinical isolate after 16 hrs by broth microdilution method. Conditions: KP-249, 16 h.
Assay [12] has as its system Staphylococcus aureus. The experiment in a line: Antimicrobial activity against Staphylococcus aureus ATCC 6538 after 16 hrs by broth microdilution method. The note with it: ATCC 6538, 16 h.
In assay [13] the test system is Staphylococcus aureus. Kind of assay: Antimicrobial activity against methicillin-resistant Staphylococcus aureus 309-8 clinical isolate after 16 hrs by broth microdilution method. Conditions: 309-8, 16 h.
The test system of assay [14] is Enterococcus faecalis. Kind of assay: Antimicrobial activity against vancomycin-susceptible Enterococcus faecalis after 16 hrs by broth microdilution method.
Assay [15] relates to Staphylococcus aureus. Kind of assay: Antimicrobial activity against methicillin-resistant Staphylococcus aureus Chaoyang clinical isolate after 16 hrs by broth microdilution method.
Assay [16] has as its system Staphylococcus aureus. The experiment in a line: Antimicrobial activity against methicillin-resistant Staphylococcus aureus 309-4 clinical isolate after 16 hrs by broth microdilution method. Conditions: 309-4, 16 h.
In assay [17] the test system is Staphylococcus aureus. Kind of assay: Antimicrobial activity against methicillin-resistant Staphylococcus aureus 309-7 clinical isolate after 16 hrs by broth microdilution method. The note with it: 309-7, 16 h.

With `O=C1Nc2c(Cl)cccc2/C1=N/NC(=S)Nc1ccccc1`, the MIC (usually the lowest concentration found to suppress growth) in assay [1] amounted to 6.25 µg/mL (≈ 18.9 µM); in assay [2], 1.56 µg/mL (≈ 4.72 µM); in assay [3], 6.25 µg/mL (≈ 18.9 µM); in assay [4], 6.25 µg/mL (≈ 18.9 µM); in assay [5], 3.12 µg/mL (≈ 9.43 µM); in assay [6], 1.56 µg/mL (≈ 4.72 µM). Besides, the minimum inhibitory concentration (MIC) in assay [7] was above 100 µg/mL; in [8], 3.12 µg/mL (≈ 9.43 µM); in [9] it was 3.12 µg/mL (≈ 9.43 µM); in [10] it was at most 0.78 µg/mL; in [11], above 100 µg/mL; in assay [12], 1.56 µg/mL (≈ 4.72 µM). Moreover, the minimal inhibitory concentration (MIC) in assay [13] came out at 1.56 µg/mL (≈ 4.72 µM); in assay [14], 6.25 µg/mL (≈ 18.9 µM); in [15], 0.78 µg/mL (≈ 2.36 µM); in assay [16], 1.56 µg/mL (≈ 4.72 µM); in assay [17] it was 0.78 µg/mL (≈ 2.36 µM).

On to `O=C1Nc2c(Cl)cccc2/C1=N/NC(=S)Nc1ccc(Cl)cc1`, for which the MIC in assay [1] was found to be 1.56 µg/mL (≈ 4.27 µM); in assay [2] it was 1.56 µg/mL (≈ 4.27 µM); in assay [3] it was 0.78 µg/mL (≈ 2.14 µM); in assay [4], 1.56 µg/mL (≈ 4.27 µM); in assay [5], 1.56 µg/mL (≈ 4.27 µM); in [6] it was 1.56 µg/mL (≈ 4.27 µM). Moreover, the MIC in assay [7] was above 100 µg/mL; in assay [8], 0.78 µg/mL (≈ 2.14 µM); in assay [9] it was 0.78 µg/mL (≈ 2.14 µM); in assay [10], at most 0.78 µg/mL; in [11], above 100 µg/mL; in assay [12], 1.56 µg/mL (≈ 4.27 µM). Moreover, the minimum inhibitory concentration (MIC) in assay [13] was found to be 1.56 µg/mL (≈ 4.27 µM); in assay [14] it was 3.12 µg/mL (≈ 8.54 µM); in assay [15], 0.39 µg/mL (≈ 1.07 µM); in assay [16], 0.78 µg/mL (≈ 2.14 µM); in assay [17] it was 0.78 µg/mL (≈ 2.14 µM).

Source of the values: ChEMBL document CHEMBL3611970, “Synthesis and evaluation of isatin-β-thiosemicarbazones as novel agents against antibiotic-resistant Gram-positive bacterial species” (2015).
